{"source": "patent US11779600B2", "about": "“Methods of treating or preventing alzheimer's disease and associated conditions” (CEDARS-SINAI MEDICAL CENTER, priority 2016, dated 2023)", "key": {"ADtg mice [1]": {"test_system": "ADtg mice", "assay": "Vascular cerebral amyloid angiopathy (CAA) score in ADtg mice", "format": "in vivo, mouse", "settings": "ADtg mice (FIG. 12)", "method": "(§1) ADtg mice (10 months old) received subcutaneous injections of GA [also known as Cop-1 and Copaxone®; 100 μg in phosphate-buffered saline (PBS)] or PBS alone (control group) twice a week for 1 week and then once a week for 8 weeks. For evaluation of innate immune infiltration to the brain by flow cytometry, 10-month-old ADtg mice received subcutaneous injections of GA (100 mg in PBS) or PBS alone twice a week for 1 week and then once a week for 3 weeks. At the end of the study, all mice were anaesthetized and then perfused with ice-cold PBS with 0.5 mM EDTA, after which their organs were collected and analyzed or fixed in 2.5% paraformaldehyde (Sigma-Aldrich), and cryoprotected with 30% sucrose for further histological analysis.\nFollowing secondary antibody staining, the brain sections were stained with thioflavin-S(Thio-S, 1% w/v in 70% ethanol) (Sigma-Aldrich) for 10 min at room temperature, washed three times in 70% ethanol, and then washed once in distilled water, for 1 min each."}, "ADtg mice [2]": {"test_system": "ADtg mice", "assay": "Barnes maze behavioral test in AD mice", "format": "in vivo, mouse", "method": "as §1\nCD115^+ monocytes from mice donors were isolated as previously reported (Koronyo et al., Brain: a journal of neurology 2015,138:2399-2422). […]\nThe Barnes maze is a spatial-learning task that allows subjects to use spatial cues to locate a means of escape from a mildly aversive environment (open space with light projection); mice are required to use spatial cues to find an escape location. The mice are assessed for their ability to learn the location of an escape box over the course of 9 days in the Barnes maze apparatus. […]"}, "OPN": {"test_system": "OPN", "assay": "Western blot of OPN and its MMP-cleaved fragments in macrophages", "format": "cell-based, mouse", "settings": "Western blot band density (FIG. 16I-16J)", "method": "MΦ^BM were lifted from each cell by 2 mM EDTA-PBS, collected in an Eppendorf tube, and centrifuged. Cell pellets were lysed in RIPA buffer (Thermo Scientific) and supplemented with a cocktail of protease inhibitors (Thermo Scientific). Protein concentration was determined using a BCA Protein Assay Kit (Thermo Scientific). Aliquots of protein samples were electrophoretically separated using 4-12% Bis-Tris gels (Invitrogen), then transferred to nitrocellulose membranes, blocked in Tris-buffered saline (TBS) containing 5% (w/v) non-fat dry milk, and hybridized with appropriate primary antibodies, including rabbit polyclonal OPN (Abcam), goat polyclonal OPN (R&D systems), and Actin (Abcam). Membranes were then incubated with the appropriate HRP-conjugated secondary antibody prior to development with chemiluminescent substrates. Densitometric analysis of blots was conducted using ImageJ software, and each experimental sample was normalized to Actin.\nNext, MMP-9 expression and OPN proteolytic fragments were analyzed. […] OPN is a known substrate for MMPs (including MMP-9). A detailed analysis of OPN expression in macrophages was performed using a polyclonal antibody recognizing full-length OPN and its MMP-cleaved fragments, including the 32 kD form. […] Remarkably, the MMP-generated 32kD C-terminus-containing peptide was elevated 12-fold after GA treatment. […]"}}, "data": [{"substance": "glatiramer acetate [GA]", "values": [{"measurement": "vascular cerebral amyloid angiopathy (CAA) burden", "setting": "ADtg mice [1]", "value": "decreases"}, {"measurement": "cognition", "setting": "ADtg mice [2]", "value": "retained cognition"}, {"measurement": "elevation of MMP-generated 32kD C-terminus-containing OPN peptide", "setting": "OPN", "value": 12, "unit": "fold"}]}]}
